Data as given in PMC9667936, “Functional mapping of the 14-3-3 hub protein as a guide to design 14-3-3 molecular glues” (Chemical Science, 2022).
Where a SMILES comes first, the peptide text is derived from it. [ ]: non-standard residue; d: D form. The star is where a group is joined. ξ: configuration not given here. FITC = O=C1OC2(c3ccc(O)cc3Oc3cc(O)ccc32)c2ccc(NC(=S)*)cc21; Phe(4-NO2) = N[C@@H](Cc1ccc([N+](=O)[O-])cc1)C(=O)O; ξAla(4-thiazolyl) = NC(Cc1cscn1)C(=O)O; pS = N[C@@H](COP(=O)(O)O)C(=O)O; β3hS = N[C@@H](CO)CC(=O)O; Nva = CCC[C@H](N)C(=O)O; AEA = NCCOCC(=O)O; βAla = NCCC(=O)O

Target: T1, 14-3-3γ (Homo sapiens, UniProt P61981)
T1 construct: made in house; host or cells: E. coli NiCo21 (DE3)
T1 sequence (P61981 1-247): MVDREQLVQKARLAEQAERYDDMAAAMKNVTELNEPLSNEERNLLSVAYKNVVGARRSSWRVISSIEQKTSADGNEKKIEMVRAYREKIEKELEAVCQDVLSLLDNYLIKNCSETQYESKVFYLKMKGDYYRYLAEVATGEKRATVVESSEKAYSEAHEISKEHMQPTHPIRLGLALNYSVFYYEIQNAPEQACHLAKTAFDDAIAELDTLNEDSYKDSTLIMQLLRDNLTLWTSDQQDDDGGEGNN
Test: Fluorescence anisotropy (FA) binary binding study: 14-3-3 titrated to fluorescein-labelled peptide
Details: for fold change in binding affinity on truncation: FA KD relative to the previous (one amino acid longer) peptide; for individual ΔΔG of removed residue / ΔΔG (to previous): FA; for individual ΔΔG of removed residue: ΔG relative to the previously truncated peptide
Protocol: 14-3-3γ protein expression (FP/ITC experiments)
(§1) A pPROEX HTb expression vector encoding the human 14-3-3 protein gamma (14-3-3γ) with an N-terminal his6-tag was transformed by heat shock into NiCo21 (DE3) competent cells. Single colonies were cultured in 50 mL LB medium (100 µg/mL ampicillin). After overnight incubation at 37 °C, cultures were transferred to 2 L TB media (100 µg/mL ampicillin, 1 mM MgCl2) and incubated at 37 °C until an OD600 nm of 0.8-1.2 was reached. Protein expression was then induced with 0.4 mM isopropyl-β-d-thiogalactoside (IPTG), and cultures were incubated overnight at 18 °C. Cells were harvested by centrifugation (8600 rpm, 20 minutes, 4 °C) and resuspended in lysis buffer (50 mM Hepes, pH 8.0, 300 mM NaCl, 12.5 mM imidazole, 5 mM MgCl2, 2 mM βME) containing cOmplete™ EDTA-free Protease Inhibitor Cocktail tablets (1 tablet/100 ml lysate) and benzonase (1 µl/100 ml). After lysis using a C3 Emulsiflex-C3 homogenizer (Avestin), the cell lysate was cleared by centrifugation (20000 rpm, 30 minutes, 4 °C) and purified using Ni2+-affinity chromatography (Ni-NTA superflow cartridges, Qiagen).
Typically two 5 mL columns (flow 5 mL/min) were used for a 2 L culture in which the lysate was loaded on the column washed with 10 CV wash buffer (50 mM Hepes, pH 8.0, 300 mM NaCl, 25 mM imidazole, 2 mM βME) and eluted in several fractions (2-4 CV) of elution buffer (50 mM Hepes, pH 8.0, 300 mM NaCl, 250 mM imidazole, 2 mM βME). Fractions containing the 14-3-3 protein were combined and dialyzed into 25 mM HEPES pH 8.0, 100 mM NaCl, 10 mM MgCl2, 500 µM TCEP. Finally, the protein was concentrated to ∼60 mg/mL, analyzed Q-Tof LC/MS, and aliquots were flash-frozen for storage at […]
as §1, with “sigma truncated after T231 (14-3-3σΔc) and” for “gamma (14-3-3γ)”, “tablet/ 100” for “tablet/100”, “µl/ 100” for “µl/100”, “ml).” for “ml). After lysis using a C3 Emulsiflex-C3 homogenizer (Avestin), the cell lysate was cleared by centrifugation (20000 rpm, 30 minutes, 4 °C) and purified using Ni2+-affinity chromatography (Ni-NTA superflow cartridges, Qiagen).”
After lysis using a C3 Emulsiflex-C3 homogenizer (Avestin), the cell lysate was cleared by centrifugation (20000 rpm, 30 minutes, 4 °C) and purified using Ni2+-affinity chromatography (Ni-NTA superflow cartridges, Qiagen). Typically two 5 mL columns were used for a 2 L culture in which the lysate was loaded on the column washed with 10 CV wash buffer (50 mM Hepes, pH 8.0, 300 mM NaCl, 25 mM imidazole, 2 mM βME) and eluted with several fractions (2-4 CV) of elution buffer (50 mM Hepes, pH 8.0, 300 mM NaCl, 250 mM imidazole, 2 mM βME). Fractions containing the 14-3-3 protein were combined and dialyzed into 25 mM HEPES pH 8.0, 200 mM NaCl, 10 mM MgCl2, 2 mM βME. In addition, 1 mg TEV was added for each 100 mg purified protein to remove the purification tag. The cleaved sample was then again loaded on a 10 mL Ni-NTA column to separate the cleaved product from the expression tag and residual uncleaved protein. The flowthrough was loaded on a Superdex 75 pg 16/60 size exclusion column (GE Life Sciences) using 25 mM HEPES, 100 mM NaCl, 10 mM MgCl2, 500 μM TCEP (adjusted to pH=8.0) as running buffer. Fractions containing the 14-3-3 protein were pooled and concentrated to ∼60 mg/mL, analyzed Q-Tof LC/MS, and aliquots were flash-frozen for storage at −80 […]
The peptides 1 and 2a-d were synthesized on 50 µmol scale on a Rink amide MBHA resin […]

[1] = Table S3, FA KD of peptide divided by KD of previous (one amino acid longer) peptide, mean of n = 3
[2] = Table S3, KD / KD of previous peptide, replicate 1
[3] = Table S3, KD / KD of previous peptide, replicate 2
[4] = Table S3, KD / KD of previous peptide, replicate 3
[5] = Table S3, calculated from FA KD, mean of n = 3
[6] = Table S3, from FA KD, replicate 1
[7] = Table S3, from FA KD, replicate 2
[8] = Table S3, from FA KD, replicate 3
[9] = Table S3, ΔG minus ΔG of previous peptide, replicate 1
[10] = Table S3, ΔG minus ΔG of previous peptide, replicate 2
[11] = Table S3, ΔG minus ΔG of previous peptide, replicate 3
[12] = Table S3, ΔG of peptide minus ΔG of previous (one amino acid longer) peptide, mean of n = 3

CCC[C@H](NC(=O)[C@@H](CCCCN)NC(=O)COCCNC(=S)Nc1ccc2c(c1)C(=O)OC21c2ccc(O)cc2Oc2cc(O)ccc21)C(=O)N[C@@H](Cc1ccc([N+](=O)[O-])cc1)C(=O)NC(Cc1cscn1)C(=O)N[C@@H](COP(=O)(O)O)C(=O)N[C@@H](Cc1ccc([N+](=O)[O-])cc1)C(=O)N[C@@H](CO)CC(=O)NCCC(N)=O (stereo partly drawn) [2f] ({FITC-AEA}-[dK][Nva][Phe(4-NO2)][ξAla(4-thiazolyl)][pS][Phe(4-NO2)][β3hS][βAla]-NH2)
fold change in binding affinity on truncation: 12 fold | individual ΔΔG of removed residue: 1.5 kcal/mol | Fold change to previous [1]: 12,39 | Fold change to previous [2]: 12,69 | Fold change to previous [3]: 11,53 | Fold change to previous [4]: 12,93 | ΔG [5]: -8,04 kcal/mol | ΔG [6]: -8,10 kcal/mol | ΔG [7]: -7,95 kcal/mol | ΔG [8]: -8,07 kcal/mol | ΔΔG (to previous) [9]: 1,50 kcal/mol | ΔΔG (to previous) [10]: 1,45 kcal/mol | ΔΔG (to previous) [11]: 1,52 kcal/mol | ΔΔG (to previous) [12]: 1,49 kcal/mol

CCC[C@H](NC(=O)[C@@H](CCCCN)NC(=O)COCCNC(=S)Nc1ccc2c(c1)C(=O)OC21c2ccc(O)cc2Oc2cc(O)ccc21)C(=O)N[C@@H](Cc1ccc([N+](=O)[O-])cc1)C(=O)NC(Cc1cscn1)C(=O)N[C@@H](COP(=O)(O)O)C(=O)N[C@@H](Cc1ccc([N+](=O)[O-])cc1)C(=O)N[C@@H](CO)CC(=O)NCCC(=O)N[C@@H](Cc1ccc([N+](=O)[O-])cc1)C(N)=O (stereo partly drawn) [2e] ({FITC-AEA}-[dK][Nva][Phe(4-NO2)][ξAla(4-thiazolyl)][pS][Phe(4-NO2)][β3hS][βAla][Phe(4-NO2)]-NH2)
fold change in binding affinity on truncation: five-fold reduction | Fold change to previous [1]: 5,55 | Fold change to previous [2]: 5,54 | Fold change to previous [3]: 7,13 | Fold change to previous [4]: 3,98 | ΔG [5]: -9,53 kcal/mol | ΔG [6]: -9,60 kcal/mol | ΔG [7]: -9,39 kcal/mol | ΔG [8]: -9,59 kcal/mol | ΔΔG (to previous) [9]: 1,01 kcal/mol | ΔΔG (to previous) [10]: 1,16 kcal/mol | ΔΔG (to previous) [11]: 0,82 kcal/mol | ΔΔG (to previous) [12]: 1,00 kcal/mol

CCC[C@H](NC(=O)[C@@H](CCCCN)NC(=O)COCCNC(=S)Nc1ccc2c(c1)C(=O)OC21c2ccc(O)cc2Oc2cc(O)ccc21)C(=O)N[C@@H](Cc1ccc([N+](=O)[O-])cc1)C(=O)NC(Cc1cscn1)C(=O)N[C@@H](COP(=O)(O)O)C(=O)N[C@@H](Cc1ccc([N+](=O)[O-])cc1)C(N)=O (stereo partly drawn) [2h] ({FITC-AEA}-[dK][Nva][Phe(4-NO2)][ξAla(4-thiazolyl)][pS][Phe(4-NO2)]-NH2)
individual ΔΔG of removed residue: 0.6 kcal/mol | Fold change to previous [1]: 2,92 | Fold change to previous [2]: 2,91 | Fold change to previous [3]: 2,67 | Fold change to previous [4]: 3,19 | ΔG [5]: -7,04 kcal/mol | ΔG [6]: -7,08 kcal/mol | ΔG [7]: -7,00 kcal/mol | ΔG [8]: -7,04 kcal/mol | ΔΔG (to previous) [9]: 0,63 kcal/mol | ΔΔG (to previous) [10]: 0,58 kcal/mol | ΔΔG (to previous) [11]: 0,69 kcal/mol | ΔΔG (to previous) [12]: 0,63 kcal/mol

CCC[C@H](N)C(=O)N[C@@H](Cc1ccc([N+](=O)[O-])cc1)C(=O)NC(Cc1cscn1)C(=O)N[C@@H](COP(=O)(O)O)C(=O)N[C@@H](Cc1ccc([N+](=O)[O-])cc1)C(=O)N[C@@H](CO)CC(=O)NCCC(=O)N[C@@H](Cc1ccc([N+](=O)[O-])cc1)C(=O)N[C@@H](CCCCN)C(=O)N[C@@H](C)C(=O)N[C@@H](CCCCNC(=S)Nc1ccc2c(c1)C(=O)OC21c2ccc(O)cc2Oc2cc(O)ccc21)C(N)=O (stereo partly drawn) [2a] (H-[Nva][Phe(4-NO2)][ξAla(4-thiazolyl)][pS][Phe(4-NO2)][β3hS][βAla][Phe(4-NO2)]KAK(FITC)-NH2)
individual ΔΔG of removed residue: only minor energy contributions | Fold change to previous (Table S2, FA KD of peptide divided by KD of previous (one amino acid longer) peptide, mean of n = 3): 1,98 | Fold change to previous (Table S2, KD / KD of previous (one amino acid longer) peptide, replicate 1): 1,72 | Fold change to previous (Table S2, KD / KD of previous (one amino acid longer) peptide, replicate 2): 2,56 | Fold change to previous (Table S2, KD / KD of previous (one amino acid longer) peptide, replicate 3): 1,66 | ΔG (Table S2, calculated from FA KD, mean of n = 3): -10,13 kcal/mol | ΔG (Table S2, from FA KD, replicate 1): -10,29 kcal/mol | ΔG (Table S2, from FA KD, replicate 2): -10,00 kcal/mol | ΔG (Table S2, from FA KD, replicate 3): -10,11 kcal/mol | ΔΔG (to previous) (Table S2, ΔG minus ΔG of previous peptide, replicate 1): 0,32 kcal/mol | ΔΔG (to previous) (Table S2, ΔG minus ΔG of previous peptide, replicate 2): 0,56 kcal/mol | ΔΔG (to previous) (Table S2, ΔG minus ΔG of previous peptide, replicate 3): 0,30 kcal/mol | ΔΔG (to previous) (Table S2, ΔG of peptide minus ΔG of previous (one amino acid longer) peptide, mean of n = 3): 0,39 kcal/mol

CCC[C@H](NC(=O)[C@@H](CCCCN)NC(=O)COCCNC(=S)Nc1ccc2c(c1)C(=O)OC21c2ccc(O)cc2Oc2cc(O)ccc21)C(=O)N[C@@H](Cc1ccc([N+](=O)[O-])cc1)C(=O)NC(Cc1cscn1)C(=O)N[C@@H](COP(=O)(O)O)C(=O)N[C@@H](Cc1ccc([N+](=O)[O-])cc1)C(=O)N[C@@H](CO)CC(N)=O (stereo partly drawn) [2g] ({FITC-AEA}-[dK][Nva][Phe(4-NO2)][ξAla(4-thiazolyl)][pS][Phe(4-NO2)][β3hS]-NH2)
individual ΔΔG of removed residue: 0.4 kcal/mol | Fold change to previous [1]: 1,85 | Fold change to previous [2]: 1,92 | Fold change to previous [3]: 1,84 | Fold change to previous [4]: 1,79 | ΔG [5]: -7,67 kcal/mol | ΔG [6]: -7,71 kcal/mol | ΔG [7]: -7,59 kcal/mol | ΔG [8]: -7,73 kcal/mol | ΔΔG (to previous) [9]: 0,39 kcal/mol | ΔΔG (to previous) [10]: 0,36 kcal/mol | ΔΔG (to previous) [11]: 0,34 kcal/mol | ΔΔG (to previous) [12]: 0,36 kcal/mol
